Reference: patent US9233933B2, “4,4-disubstituted-1,4-dihydropyrimidines and the use thereof as medicaments for the treatment of hepatitis B” (priority 2012, dated 2016)
Like-named read-outs stand apart in the source and are kept apart here.

Columns and labels:
[1] = Cytotoxicity in HepG2 cells using CellTiter-Blue, same incubation period as HepG2.2.15 assay; assay type: cell-based; conditions: human
Procedure: Cytotoxicity of the compounds was tested in HepG2 cells using CellTiter-Blue, with the same incubation period and dose range as in the HepG2.2.15 assay.

[2] = system: HBV; experiment: anti HBV activity in HepG2.117 cell line (Tet-off, inducibly HBV producing), intracellular HBV DNA by realtime PCR; assay type: cell-based, Hepatitis B virus; conditions: read-out: HepG2 117 EC50
[3] = system: HBV; experiment: anti-HBV activity in stable transfected HepG2.2.15 cell line, HBV DNA from secreted virions by realtime PCR; assay type: cell-based, Hepatitis B virus; conditions: read-out: HBV-HepG2 2.15 EC50
[4] = Cytotoxicity in HepG2 cells incubated 4 days, Resazurin assay; conditions: human, HepG2 4 days CC50, HepG2 cells
[5] = HepG2 cells, 6 days, CellTiter-Blue, read-out: HepG2 6 days CC50
[6] = Hepatitis B virus, HepG2.117, 72 h, HepG2.117 cells, 3 days of treatment, intracellular HBV DNA
[7] = Hepatitis B virus, HepG2.2.15, 144 h, HepG2.2.15 cells, 6 days of treatment, secreted virion HBV DNA
[8] = HepG2.117 cells, 3 days of treatment, intracellular HBV DNA
[9] = HepG2.2.15 cells, 6 days of treatment, secreted virion HBV DNA
[10] = Hepatitis B virus, HepG2.117, 72 h
[11] = Hepatitis B virus, HepG2.2.15, 144 h

Row | Structure (SMILES) | CC50 at 6 days [1, 5] [µM] | EC50 [2, 6] [µM] | EC50 [3, 7] [µM] | CC50 at 4 days [4] [µM] | also measured
1 | COC(=O)C1=C(CN2CCOCC2)NC(c2ccccn2)=NC1(C)c1ccccc1Cl (stereo not drawn) [Compound 13] | > 100 | 3.9 | 9.34 | > 100 | –
2 | CCOC(=O)C1=C(C(F)(F)C(F)(F)F)NC(c2ccccn2)=NC1(C)c1ccc(F)cc1 (stereo not drawn) [Compound 11] | > 100 | – | > 100 | – | –
3 | CCOC(=O)C1=C(C(F)(F)F)NC(c2ccccn2)=NC1(C)c1ccc(F)cc1 (stereo not drawn) [Compound 10] | > 10 | > 10 | > 10 | > 10 | –
4 | COC(=O)C1=C(C)NC(c2nccs2)=NC1(C)c1ccc(F)c(F)c1 (single isomer, unassigned) [Compound 155b] | – | – | – | – | EC50 [2, 8]: > 25 µM; EC50 [3, 9]: > 100 µM
5 | C=CC1=C(C(=O)OC)C(C)(c2ccc(F)c(F)c2)N=C(c2ncc(F)cc2F)N1 (stereo not drawn) [Compound 153] | – | 3.31 | 12.9 | > 25 | –
6 | COC(=O)C1=C(C)NC(c2nccn2C)=NC1(C)c1ccc(F)c(F)c1 (stereo not drawn) [Compound 162] | – | > 25 | > 25 | > 25 | –
7 | COC(=O)C1=C(C)NC(c2nccs2)=NC1(C)c1ccc(F)c(F)c1 (single isomer, unassigned) [Compound 155a] | – | 17.1 | – | – | EC50 [3, 9]: 0.983 µM
8 | COC/C=C/C1=C(C(=O)OC)C(C)(c2ccc(F)c(F)c2)N=C(c2ncc(F)cc2F)N1 (stereo not drawn) [Compound 147] | – | 3.17 | 2.73 | > 25 | –
9 | COC(=O)C1=C(C)NC(c2ncccc2F)=NC1(C)c1ccc(F)c(F)c1 (racemic) [Compound 158] | – | 4.56 | – | > 25 | –
10 | N#CC1=C(CN2CCOCC2)NC(c2ccccn2)=NC12CCCc1cc(F)ccc12 (single isomer, unassigned) [Compound 60a] | > 100 | – | – | > 100 | EC50 [2, 8]: > 100 µM; EC50 [3, 9]: > 100 µM
11 | COC(=O)C1=C(C)NC(c2ncc(F)cc2F)=NC1(C)c1ccc(C)c(F)c1 (stereo not drawn) [Compound 157] | – | 3.06 | 9.52 | > 25 | –
12 | COC(=O)C1=C(CN2CCOCC2)NC(c2ccccn2)=NC1(C)c1ccc(F)cc1 (stereo not drawn) [Compound 2] | > 100 | 0.25 | 0.669 | > 50 | –
13 | COC(=O)C1=C(C)NC(c2ccc(F)cn2)=NC1(C)c1ccc(F)c(F)c1 (stereo not drawn) [Compound 133] | – | – | – | > 25 | EC50 [2, 10]: 4.33 µM; EC50 [3, 11]: 17.3 µM
14 | COC(=O)C1=C(C)NC(c2ncc(F)cc2F)=NC1(C)c1ccc(F)c(Cl)c1 (stereo not drawn) [Compound 148] | – | > 25 | – | 17.2 | –
15 | CCOC(=O)C1=C(CN2CCOCC2)NC(c2ccccn2)=NC1(C)c1ccc(F)c(Cl)c1 (stereo not drawn) [Compound 18] | 36.5 | 1.6 | 3.92 | > 50 | –
16 | COC(=O)C1=C(C)NC(c2ncc(F)cc2F)=NC1(C)c1ccc(F)c(C)c1 (stereo not drawn) [Compound 149] | – | 3.26 | 23.8 | > 25 | –
17 | COCC1=C(C(=O)OC)C(C)(c2ccc(F)c(F)c2)N=C(c2ncc(F)cc2F)N1 (stereo not drawn) [Compound 152] | – | 2.88 | 3.38 | > 25 | –
18 | COC(=O)C1=C(CN2CCOCC2)NC(c2ccccn2)=NC1(C)c1cc(F)cc(Cl)c1 (stereo not drawn) [Compound 29] | 47.4 | 3 | 6.32 | > 25 | –
19 | COC(=O)C1=C(C)NC(c2cnccn2)=NC1(C)c1ccc(F)c(F)c1 (stereo not drawn) [Compound 161] | – | > 25 | – | – | –
20 | CCOC(=O)C1=C(C)NC(c2ccccn2)=NC1(c1ccc(F)cc1)C(F)(F)F (stereo not drawn) [Compound 35] | 68.1 | – | > 100 | – | –
21 | COC(=O)C1=C(C#N)NC(c2ncc(F)cc2F)=NC1(C)c1ccc(F)c(F)c1 (single isomer, unassigned) [Compound 163a] | – | > 25 | 69.5 | > 25 | –
22 | CCOC(=O)C1=C(CN2CCOCC2)NC(c2ccccn2)=NC1(C)c1ccc(F)cc1 (racemic) [Compound 4] | 51.1 | 0.66 | – | > 25 | EC50 [3, 9]: 1.92 µM
23 | CCOC(=O)C1=C(C)NC(c2ccccn2)=NC1(C)c1ccc(F)c(Cl)c1 (stereo not drawn) [Compound 17] | 39.9 | 21 | > 50 | > 25 | –
24 | N#CC1=C(CN2CCOCC2)NC(c2ccccn2)=NC12CCc1ccccc12 (stereo not drawn) [Compound 76] | > 100 | 3.65 | 8.48 | > 100 | –
25 | CCOC(=O)C1=C(CN2CCSCC2)NC(c2ccccn2)=NC1(C)c1ccc(F)cc1 (stereo not drawn) [Compound 8] | 54.3 | 3.3 | 14.8 | > 50 | –

Row | Structure (SMILES) | CC50 at 6 days [1, 5] [µM] | EC50 [2, 6] [µM] | EC50 [3, 7] [µM] | CC50 at 4 days [4] [µM] | also measured
26 | CCOC(=O)C1=C(CN2CCOCC2)NC(c2ccccn2)=NC1(C)c1ccc(F)cc1Cl (stereo not drawn) [Compound 41] | > 50 | 4.5 | 7.39 | > 25 | –
27 | N#CC1=C(CN2CCOCC2)NC(c2ccccn2)=NC12CCCc1ccc(F)cc12 (stereo not drawn) [Compound 58] | > 100 | > 25 | > 100 | > 25 | –
28 | COC(=O)C1=C(C)NC(c2ncc(F)cc2F)=NC1(C)c1ccc(F)c(F)c1 (single isomer, unassigned) [Compound 132a] | – | > 25 | > 100 | 21.1 | –
29 | CCOC(=O)C1=C(C#N)NC(c2ccccn2)=NC1(C)c1ccc(F)cc1 (stereo not drawn) [Compound 5] | > 100 | – | > 100 | – | –
30 | CCOC(=O)C1=C(CN2CCCC2)NC(c2ccccn2)=NC1(C)c1ccc(F)cc1 (stereo not drawn) [Compound 7] | 13.4 | – | > 100 | – | –
31 | N#CC1=C(CN2CCOCC2)NC(c2ccccn2)=NC12CCCc1ccccc12 (stereo not drawn) [Compound 61] | > 100 | – | 18 | – | –
32 | COC(=O)C1=C(C)NC(c2ncc(F)cc2F)=NC1(C)c1ccc(F)cc1 (stereo not drawn) [Compound 128] | 63.8 | 2.47 | 9.1 | > 50 | –
33 | COC(=O)C1=C(C)NC(c2ncc(F)cc2C)=NC12CCCc1cc(F)ccc12 (stereo not drawn) [Compound 81] | – | – | 19.9 | – | CC50 at 6 days ([1]; HepG2 6 days CC50): > 50 µM
34 | CCOC(=O)C1=C(C)NC(c2ccccn2)=NC12CCc1cc(F)ccc12 (stereo not drawn) [Compound 40] | – | – | 14 | – | CC50 at 6 days ([1]; HepG2 6 days CC50): 77 µM
35 | COC(=O)C1=C(C)NC(c2ccccn2)=NC1(C)c1cccc(F)c1 (stereo not drawn) [Compound 31] | > 100 | – | – | > 50 | EC50 [2, 10]: 40.6 µM; EC50 [3, 11]: 72.4 µM
36 | COC(=O)C1=C(C)NC(c2ncc(F)cc2F)=NC1(C)c1ccc(F)c(F)c1 (stereo not drawn) [132b (−)-camphanic acid] | – | – | – | – | EC50 [3, 9]: 0.489 µM
37 | COC(=O)C1=C(C)NC(c2ncc(F)cc2F)=NC1(C)c1ccc(Cl)c(F)c1 (stereo not drawn) [Compound 156] | – | 0.669 | 1.11 | > 25 | –
38 | COC(=O)C1=C(CN2CCOCC2)NC(c2ncc(F)cc2F)=NC1(C)c1ccc(F)c(Cl)c1 (stereo not drawn) [Compound 150] | – | 0.694 | 1.35 | > 25 | –
39 | CCOC(=O)C1=C(CN2CCCCC2)NC(c2ccccn2)=NC1(C)c1ccc(F)cc1 (stereo not drawn) [Compound 9] | 62.4 | – | > 100 | – | –
40 | COC(=O)C1=C(C2CC2)NC(c2ncc(F)cc2F)=NC1(C)c1ccc(F)c(F)c1 (stereo not drawn) [Compound 142] | – | 3.37 | 11.5 | > 25 | –
41 | COC(=O)C1=C(C)NC(SC)=NC1(C)c1ccc(F)c(F)c1 (single isomer, unassigned) [Compound 160a] | – | – | – | > 25 | EC50 [2, 8]: > 25 µM; EC50 [3, 9]: > 50 µM
42 | COC(=O)C1=C(C)NC(c2nccs2)=NC1(C)c1ccc(F)c(F)c1 (racemic) [Compound 155] | – | 14 | 0.744 | – | –
43 | CCOC(=O)C1=C(C)NC(c2nccs2)=NC1(C)c1ccc(F)c(Cl)c1 (stereo not drawn) [Compound 21] | 17.5 | – | 12.7 | – | –
44 | COC(=O)C1=C(C)NC(c2ncc(F)cc2F)=NC1(c1ccc(F)c(F)c1)C(F)F (single isomer, unassigned) [Compound 151a] | – | – | – | > 25 | EC50 [2, 8]: > 25 µM; EC50 [3, 9]: > 100 µM
45 | COC(=O)C1=C(C)NC(c2ncccc2F)=NC1(C)c1ccc(F)c(F)c1 (single isomer, unassigned) [Compound 158a] | – | – | – | > 25 | EC50 [2, 8]: 2.44 µM
46 | COC(=O)C1=C(C)NC(SC)=NC1(C)c1ccc(F)c(F)c1 (racemic) [Compound 160] | – | 23.7 | 0.717 | > 25 | –
47 | CCOC(=O)C1=C(C)NC(c2ccccn2)=NC1(C)c1ccc(F)cc1 (stereo not drawn) [Compound 6] | > 25 | – | > 25 | – | –
48 | COC(=O)C1=C(C)NC(c2ncc(F)cc2C)=NC1(C)c1ccc(F)c(F)c1 (stereo not drawn) [Compound 154] | – | 17.6 | 27.5 | > 25 | –
49 | COC(=O)C1=C(C)NC(c2ncccn2)=NC1(C)c1ccc(F)c(F)c1 (single isomer, unassigned) [Compound 159a] | – | 25 | – | > 25 | EC50 [3, 9]: 37.5 µM
50 | COC(=O)C1=C(C)NC(c2ncc(F)cc2F)=NC1(C)c1ccc(F)c(F)c1 (stereo not drawn) [Compound 132b] | – | – | – | > 25 | EC50 [2, 10]: 0.474 µM; EC50 [3, 11]: 0.784 µM
